The values below come from article PMC11742122, “Therapeutic Potential of Crocin and Nobiletin in a Mouse Model of Dry Eye Disease: Modulation of the Inflammatory Response and Protection of the Ocular Surface” (Iranian Journal of Pharmaceutical Research : IJPR, 2024).

Marks after values point to notes of the source that are not given here.

Data set [1] relates to TNF-α. The experiment in a line: TNF-α concentration in LPS-stimulated HEK-293 cell line. It is filed as cell-based. Particulars: HEK-293 cells, LPS 1 μg/mL, 48 hours; for TNF-α concentration, higher dose versus lower dose: crocin 68 μM, nobiletin 65.5 μM; for TNF-α concentration (anti-inflammatory effect): crocin 34 and 68 μM, nobiletin 32.75 and 65.5 μM, vs LPS group. On the procedure:
Figure 3. Tumor necrosis factor-alpha (TNF-α) concentration in HEK-293 cells treated with LPS (1 μg/mL) for 48 hours.

In data set [2] the test system is HEK-293 cells. Nature of the data set: MTT cell viability assay. It is filed as cell-based. Particulars: Homo sapiens, HEK293, 48-hour treatment. On the procedure:
The HEK-293 cell line was acquired from the National Cell Bank of Iran, situated at the Pasteur Institute in Tehran. These cells were propagated in Roswell Park Memorial Institute (RPMI) medium, supplemented with 10% fetal bovine serum (FBS), 100 units/mL penicillin, and 100 μg/mL streptomycin. The culture conditions maintained were a humidified incubator set at 37°C, with 5% CO2 and 95% humid air. The culture medium was replenished twice per week until the cells reached 80 - 90% confluency. Subsequently, the cells were dissociated using trypsin and subcultured for passaging and cryopreservation. All experiments were conducted using cells within the passage number range of 3 - 6. Cells were routinely tested for mycoplasma contamination using Hoechst staining. Briefly, cells were fixed and stained with Hoechst 33258 dye, which binds to DNA. Samples were then examined under a fluorescence microscope for the presence of extranuclear DNA, indicative of mycoplasma infection. All cell cultures used in this study were confirmed to be mycoplasma-negative. […] In this study, (1 × 10^4) Hek-293 cells were seeded per well in 96-well plates. […] The measurement of absorbance was performed at an optical density (OD) of 570 nm. Cell viability was assessed by comparing the absorbance values of the drug-treated cells to those of untreated control cells. […]
Background: Formazan colour is commonly taken as a measure of viable cells.

Data set [3] concerns rabbit eye. Nature of the data set: Eye irritation test (Draize test) in rabbits' eyes. Here is the method: To assess the ocular toxicity of the two compounds, crocin and nobiletin, an in vivo eye irritation test was conducted. The concentrations evaluated were strategically chosen based on the respective IC50 of each compound. Specifically, the concentrations tested included the IC50 value itself, as well as concentrations at one-half and one-quarter of the IC50 value. This approach allowed for a comprehensive evaluation of the potential eye irritation caused by varying levels of exposure to these compounds. The experimental protocol involved the preparation of stock solutions for crocin and nobiletin using DMSO as the solvent at high concentrations. These stock solutions were then diluted with an artificial tear solution to obtain the desired treatment doses for instillation into the eye conjunctiva of the test subjects. Subsequently, the team meticulously observed and recorded any occurrences of eye symptoms, focusing on the iris, cornea, and conjunctiva over periods of 1, 24, 48, and 72 hours ([18]).

With `CC(/C=C/C=C(\C)C(=O)O[C@@H]1O[C@H](CO[C@@H]2O[C@H](CO)[C@@H](O)[C@H](O)[C@H]2O)[C@@H](O)[C@H](O)[C@H]1O)=C\C=C\C=C(C)\C=C\C=C(/C)C(=O)O[C@@H]1O[C@H](CO[C@@H]2O[C@H](CO)[C@@H](O)[C@H](O)[C@H]2O)[C@@H](O)[C@H](O)[C@H]1O` [Crocin], in data set [1], the “TNF-α concentration, higher dose versus lower dose” value is on record as “superior anti-inflammatory efficacy compared to their lower-dose counterparts” and the “TNF-α concentration (anti-inflammatory effect)” value is “exhibited anti-inflammatory properties at all tested concentrations”. For the same compound, the IC50 (usually the midpoint of a concentration-inhibition curve) in data set [2] was 136 µM. For the same compound, the highest safe concentration in data set [3] (rabbit eye irritation test) was 34 ^a µM. In addition, the ocular observations result in data set [3] (rabbit, in vivo) was “ocular turbidity was observed, along with mild conjunctival hyperemia”.
For `COc1ccc(-c2cc(=O)c3c(OC)c(OC)c(OC)c(OC)c3o2)cc1OC` [Nobiletin], in data set [1], the “TNF-α concentration, higher dose versus lower dose” value is on record as “superior anti-inflammatory efficacy compared to their lower-dose counterparts” and the “TNF-α concentration (anti-inflammatory effect)” value is “exhibited anti-inflammatory properties at all tested concentrations”. Half-maximal inhibition in data set [2] (IC50) was put at 131 µM. Besides, the ocular observations entry in data set [3] (rabbit, in vivo) is on record as “ocular turbidity was observed, along with mild conjunctival hyperemia”. Further, the highest safe concentration in data set [3] (rabbit, in vivo, 72 h) is on record as 32.75 ^a µM.
